Broadly, the solubility is the concentration that dissolves in the medium under given conditions.

The source of these data is patent publication US20250108064A1, “PHOSPHATE PRODRUGS OF CANNABINOIDS” (priority 2021, published 2025).

Data set [1] in a line: Simulated Gastric Fluid stability assay. The class given is in vitro ADME. To be noted: simulated gastric fluid (SGF) with pepsin, pH 1.2; SGF pH about 1.2 with pepsin, 37° C.; read-out: T½ in SGF (converted). How it is done:
General Experimental: Simulated Gastric Fluid (SGF) is a pH 1.2 HCl solution with purified pepsin (800-2500 units of activity) (Test Solutions, The United States Pharmacopoeia (USP), 2008). SGF was prepared according to a procedure described in Test Solution—USP and other published articles (Bioorganic Chemistry, 49 (2013), 40-48). Sodium chloride 0.20 g and purified pepsin 0.32 g (Sigma), derived from porcine stomach mucosa with an activity of 800 to 2500 units per mg of protein, were dissolved in 0.70 mL hydrochloric acid and sufficient water to make 100 mL. […] The SGF solution prepared was used for in vitro studies to evaluate the prodrug stability.
At specified time intervals, aliquots (100 μL) were withdrawn and added to pre-cooled 100% acetonitrile (200 μL spiked with ISTD) and mixed well by vortex mixing for 2 min. The mixture was centrifuged at 13000 rpm for 15 min at 4° C.

Data set [2] in a line: Brain homogenate stability assay. The following applies: mouse brain homogenate, 37° C. The format is in vitro ADME. An excerpt: General Experimental: Purchases were made for DPBS (1X) (Gibco) and Pierce BCA Assay kit for protein quantification (Thermo Fischer). Frozen mouse brain homogenate was provided by Dr. Scott Myers at Emory University School of Medicine (C57BL/6J adult male mice (Jackson Laboratory), 239 days (34 weeks) old). Briefly, each mouse was euthanized via isoflurane overdose and immediately upon cessation of breathing the chest cavity was opened and the left ventricle punctured with a 21G needle, the vena cava was then clipped and the body perfused with cold PBS (pH 7.35) for 2 min. Following, the brain was removed (on ice) and the forebrain separated from the cerebellum. The forebrain wet weight was recorded and placed into 3 mL ice cold HBSS (Hank's Balanced Salt Solution, pH 7.4), and then homogenized for 10 secs at 3/4 max setting. […] The amount of protein in the mouse brain homogenate was quantified using the Pierce BCA assay kit before running the stability assay.
Procedure for Brain Homogenate Stability Assay: 10 mM stock solution was prepared in 100% DMSO for each test compound. […] The supernatant was transferred into the HPLC vials, and measured by LC-MS/MS. Half-life (T1/2) was calculated using the data obtained from LC-MS/MS and by plotting ln (% remaining of the parent prodrug) versus time and performing linear regression to determine slope. […]

A short description of data set [3]: Plasma stability assay (human plasma). The format is in vitro ADME. To be noted: 37° C., read-out: T½ in human plasma (converted).
A further data set is described as follows: physchem. The class given is physicochemical. To be noted: aqueous buffer, kinetic from dmso stock; nephelometry, PBS pH 7.0-7.3, 1% DMSO, 25° C., 90 min. The method, boiled down: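 DMSO stocks of 10-50 mM were serially diluted and then diluted into DPBS (pH 7.0-7.3) to 1% final DMSO. After shaking for 90 min at 25° C, light scattering was read by nephelometry.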

On to `C=C(C)[C@@H]1CCC(C)=C[C@H]1c1c(O)cc(CCCCC)cc1OC(=O)C1(OP(=O)(O)O)CC1.N.N` [7b, 1-((((1′R,2′R)-6-hydroxy-5′-methyl-4-pentyl-2′-(prop-1-en-2-yl)-1′,2′,3′,4′-tetrahydro-[1,1′-biphenyl]-2-yl)oxy)carbonyl)cyclopropyl phosphate di-ammonium salt], for which the half-life at 2 mM in data set [1] was above 3 h. The “brain homogenate stability (metabolism and metabolite formation)” value in data set [2] was “metabolism of compound 7b and formation of CBD”. Besides, the half-life in data set [3] is 5.3 h. The compound further gave a solubility in the data set “physchem” above 500 µM.
